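At the GI50, growth is halved. The concentration for full growth arrest is given as TGI.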
Tests used:
Experiment in all cases: NCI anticancer screen, dose series, 384-well format
[1] = test system: NCI-H23 lung
[2] = test system: HCC-2998 colon
[3] = test system: TK-10 renal
[4] = test system: CAKI-1 renal
[5] = test system: SN12C renal
[6] = test system: U251 glioblastoma
[7] = test system: SNB-19 CNS
[8] = test system: OVCAR-8 ovarian
[9] = test system: T-47D breast
[10] = test system: SNB-75 CNS
[11] = test system: HT29 colon
[12] = test system: UACC-257 melanoma
[13] = test system: NCI-H226 lung
[14] = test system: MCF7 breast
[15] = test system: NCI-H460 NSCLC
[16] = test system: SK-OV-3 ovarian
[17] = test system: HCT-116 colon
[18] = test system: HOP-62 NSCLC
[19] = test system: EKVX NSCLC
[20] = test system: MDA-MB-435 melanoma
[21] = test system: LOX IMVI melanoma
[22] = test system: SF-539 CNS
[23] = test system: A549 NSCLC
[24] = test system: PC-3 prostate
[25] = test system: SR leukemia
[26] = test system: NCI/ADR-RES ovarian
[27] = test system: BT-549 breast
[28] = test system: NCI-H522 lung
[29] = test system: OVCAR-3 ovarian
[30] = test system: UO-31 renal
[31] = test system: SK-MEL-5 melanoma
[32] = test system: HS 578T breast
[33] = test system: SF-268 CNS
[34] = test system: 786-0 renal
[35] = test system: MDA-MB-231 breast
[36] = test system: RXF 393 renal
[37] = test system: K-562 leukemia
[38] = test system: KM12 colon
[39] = test system: OVCAR-5 ovarian
[40] = test system: DU-145 prostate
[41] = test system: HCT-15 colon
[42] = test system: IGROV1 ovarian
[43] = test system: MOLT-4 leukemia
[44] = test system: M14 melanoma
[45] = test system: MALME-3M melanoma
[46] = test system: HOP-92 NSCLC
[47] = test system: NCI-H322M lung
[48] = test system: SF-295 CNS
[49] = test system: HL-60(TB) leukemia
[50] = test system: RPMI-8226 leukemia
[51] = test system: MDA-MB-468 breast
[52] = test system: COLO 205 colon
[53] = test system: A498 renal
[54] = test system: SK-MEL-28 melanoma
[55] = test system: SW-620 colon
[56] = test system: OVCAR-4 ovarian
[57] = test system: CCRF-CEM leukemia
[58] = test system: ACHN renal

CC(C)(C)c1[nH]cnc1/C=c1\[nH]c(=O)/c(=C/c2ccccc2)[nH]c1=O
GI50 [1]: < 10 nM
TGI [1]: < 10 nM
GI50 [2]: < 10 nM
TGI [2]: 22.1 nM
GI50 [3]: < 10 nM
TGI [3]: 16400 nM
GI50 [4]: < 10 nM
TGI [4]: 13000 nM
GI50 [5]: < 10 nM
TGI [5]: 4230 nM
GI50 [6]: < 10 nM
TGI [6]: 16.8 nM
GI50 [7]: < 10 nM
TGI [7]: 11000 nM
GI50 [8]: < 10 nM
TGI [8]: 15.9 nM
GI50 [9]: < 10 nM
TGI [9]: 7150 nM
GI50 [10]: < 10 nM
TGI [10]: 78.3 nM
GI50 [11]: < 10 nM
TGI [11]: 12900 nM
GI50 [12]: < 10 nM
TGI [12]: 18800 nM
GI50 [13]: < 10 nM
TGI [13]: 26.2 nM
GI50 [14]: < 10 nM
TGI [14]: 10300 nM
GI50 [15]: < 10 nM
TGI [15]: < 10 nM
GI50 [16]: < 10 nM
TGI [16]: 746 nM
GI50 [17]: < 10 nM
TGI [17]: 39.3 nM
GI50 [18]: < 10 nM
TGI [18]: 304 nM
GI50 [19]: < 10 nM
TGI [19]: 13000 nM
GI50 [20]: < 10 nM
TGI [20]: < 10 nM
GI50 [21]: < 10 nM
TGI [21]: 30.5 nM
GI50 [22]: < 10 nM
TGI [22]: < 10 nM
GI50 [23]: < 10 nM
TGI [23]: 16700 nM
GI50 [24]: < 10 nM
TGI [24]: 14900 nM
GI50 [25]: < 10 nM
TGI [25]: < 10 nM
GI50 [26]: < 10 nM
TGI [26]: < 10 nM
GI50 [27]: < 10 nM
TGI [27]: 25.5 nM
GI50 [28]: < 10 nM
TGI [28]: < 10 nM
GI50 [29]: < 10 nM
TGI [29]: < 10 nM
GI50 [30]: < 10 nM
TGI [30]: 14500 nM
GI50 [31]: < 10 nM
TGI [31]: < 10 nM
GI50 [32]: < 10 nM
TGI [32]: < 10 nM
GI50 [33]: < 10 nM
TGI [33]: 49.1 nM
GI50 [34]: < 10 nM
TGI [34]: 27 nM
GI50 [35]: 10.7 nM
TGI [35]: 19700 nM
GI50 [36]: < 10 nM
TGI [36]: < 10 nM
GI50 [37]: < 10 nM
TGI [37]: < 10 nM
GI50 [38]: < 10 nM
TGI [38]: 1250 nM
GI50 [39]: 10900 nM
TGI [39]: 32900 nM
GI50 [40]: < 10 nM
TGI [40]: 21.9 nM
GI50 [41]: < 10 nM
TGI [41]: 22.5 nM
GI50 [42]: < 10 nM
TGI [42]: 10200 nM
GI50 [43]: < 10 nM
TGI [43]: < 10 nM
GI50 [44]: < 10 nM
TGI [44]: < 10 nM
GI50 [45]: < 10 nM
TGI [45]: 16500 nM
GI50 [46]: < 10 nM
TGI [46]: 2810 nM
GI50 [47]: < 10 nM
TGI [47]: 15200 nM
GI50 [48]: < 10 nM
TGI [48]: < 10 nM
GI50 [49]: < 10 nM
TGI [49]: < 10 nM
GI50 [50]: < 10 nM
TGI [50]: < 10 nM
GI50 [51]: 10.3 nM
TGI [51]: 24.6 nM
GI50 [52]: < 10 nM
TGI [52]: < 10 nM
GI50 [53]: < 10 nM
TGI [53]: 265 nM
GI50 [54]: 1750 nM
TGI [54]: 20400 nM
GI50 [55]: < 10 nM
TGI [55]: 17500 nM
GI50 [56]: < 10 nM
TGI [56]: 3720 nM
GI50 [57]: < 10 nM
TGI [57]: < 10 nM
GI50 [58]: < 10 nM
TGI [58]: 13300 nM
